Source: patent US20240409662A1, “ANTIBODY MASKS AND USES THEREOF” (Vibrant Pharma Limited, priority 2021, published 2024)
Read-outs that look alike come from different tables or passages of the source. No end group written: not given here.

Key:
SP34 = assay: Masking capability of potential masks of SP34 (ELISA, BLI); assay type: binding; settings: mask and linker fused to SP34 VH and/or VL
Method: Binding of the 19 M-TCEs to both their antigens CEACAM5 and CD3δε was assessed with BLI using ForteBio Red96 as described above.

HT29 cells = assay: PBMC co-cultivation assay, M-TCE-induced killing of HT29 cells; assay type: cell-based, human; settings: for EC50: HT29 + human PBMC, 72 hours, read-out: Efficacy (EC50); for tumor cell killing efficacy: digested vs undigested, in words; for Digested vs. masked: ratio of EC50 non-digested to MMP9-digested
Method: Five digested and undigested M-TCEs were tested for their tumor cell killing capability in the presence of human PBMC.
A total of 5×10^3 cells in RPMI1640 medium (supplemented with 10% FBS and 2 mM glutamine) of the target cell line (HT29) were seeded in 96-well plates (Day 0). A dilution series of respective antibodies was performed in assay media and added to target cells. On Day 0, a total of 5×10^4 PBMCs were added to each well, and the final reaction volume was adjusted to 200 μl. Percentage viability of target cell was measured by […]. LDH was measured after 72 hours using the Cell Counting Kit-8 (CK04, Dojindo, Japan) according to the manufacturer's recommendations. The results were analyzed as mean and standard deviation (SD) from triplicate wells and plotted as 4-parameter non-linear regression fittings using GraphPad Prism 9 software (GraphPad Software, San Diego, CA, USA).

CD3 on human PBMC = CD3 on human PBMC (human, UniProt P07766 23-207); assay: cell-based or functional assay
Sequence of CD3 on human PBMC (P07766 23-207): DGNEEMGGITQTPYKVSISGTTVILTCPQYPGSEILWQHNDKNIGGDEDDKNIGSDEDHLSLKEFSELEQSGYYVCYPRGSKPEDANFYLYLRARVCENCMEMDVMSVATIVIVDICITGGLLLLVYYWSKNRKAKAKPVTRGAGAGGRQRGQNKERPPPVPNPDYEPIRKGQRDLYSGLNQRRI

Molecule	Masking Capability (SP34)	other results
L0-WT: M-TCE; QDGNEEPLGL-SP34VH, SEQ ID NO 12	Yes	–
L2-D2E: M-TCE; QEGNEEGSPLGLGS-SP34VH, SEQ ID NO 26	Yes	–
L2-D2G: M-TCE; QGGNEEGSPLGLGS-SP34VH, SEQ ID NO 32	Yes	–
L2-D2I: M-TCE; QIGNEEGSPLGLGS-SP34VH, SEQ ID NO 31	No	–
L2-D2R: M-TCE; QRGNEEGSPLGLGS-SP34VH, SEQ ID NO 25	No	–
L2-G3A: M-TCE; QDANEEGSPLGLGS-SP34VH, SEQ ID NO 38	Yes	–
L2-G3I: M-TCE; QDINEEGSPLGLGS-SP34VH, SEQ ID NO 37	No	–
L2-Q1E: M-TCE; EDGNEEGSPLGLGS-SP34VH, SEQ ID NO 19	No	–
L2-Q1H: M-TCE; HDGNEEGSPLGLGS-SP34VH, SEQ ID NO 22	No	–
L2-Q1S: M-TCE; SDGNEEGSPLGLGS-SP34VH, SEQ ID NO 20	No	–
L2-Q1V: M-TCE; VDGNEEGSPLGLGS-SP34VH, SEQ ID NO 23	No	–
L2-Q1Y: M-TCE; YDGNEEGSPLGLGS-SP34VH, SEQ ID NO 21	No	–
L2-WT: M-TCE; QDGNEEGSPLGLGS-SP34VH, SEQ ID NO 13	Yes	–
L3-WT: M-TCE; QDGNEESGSPLGLSGG-SP34VH, SEQ ID NO 14	Yes	–
L4-D2G: M-TCE; QGGNEEGSGSPLGLGSGS-SP34VH, SEQ ID NO 33	Yes	–
L4-G3R: M-TCE; QDRNEEGSGSPLGLGSGS-SP34VH, SEQ ID NO 44	Yes	–
L4-WT: M-TCE; QDGNEEGSGSPLGLGSGS-SP34VH, SEQ ID NO 15	Yes	–
L5-D2E: M-TCE; QEGNEESSGGSPLGLSSGGS-SP34VH, SEQ ID NO 28	Yes	EC50 (HT29 cells; MMP9-digested): 0.013 nM; EC50 (HT29 cells; Non-digested): 0.418 nM; tumor cell killing efficacy (HT29 cells): higher efficacy in inducing tumor cell killing than their undigested counterparts; Digested vs. masked (HT29 cells): 32×

Molecule	Masking Capability (SP34)	other results
L5-D2G: M-TCE; QGGNEESSGGSPLGLSSGGS-SP34VH, SEQ ID NO 34	Yes	–
L5-G3A: M-TCE; QDANEESSGGSPLGLSSGGS-SP34VH, SEQ ID NO 40	Yes	–
L5-WT: M-TCE; QDGNEESSGGSPLGLSSGGS-SP34VH, SEQ ID NO 16	Yes	–
L6-D2E: M-TCE; QEGNEESSGGGSPLGLSSGGGS-SP34VH, SEQ ID NO 29	Yes	EC50 (HT29 cells; MMP9-digested): 0.01 nM; EC50 (HT29 cells; Non-digested): 0.317 nM; tumor cell killing efficacy (HT29 cells): higher efficacy in inducing tumor cell killing than their undigested counterparts; Digested vs. masked (HT29 cells): 32×
L6-D2G: M-TCE; QGGNEESSGGGSPLGLSSGGGS-SP34VH, SEQ ID NO 35	Yes	–
L6-G3A: M-TCE; QDANEESSGGGSPLGLSSGGGS-SP34VH, SEQ ID NO 41	Yes	–
L6-G3R: M-TCE; QDRNEESSGGGSPLGLSSGGGS-SP34VH, SEQ ID NO 45	Yes	–
L6-WT: M-TCE; QDGNEESSGGGSPLGLSSGGGS-SP34VH, SEQ ID NO 17	Yes	–
L7-D2E: M-TCE; QEGNEESSGGSGSPLGLSSGGSGS-SP34VH, SEQ ID NO 30	Yes	–
L7-D2G: M-TCE; QGGNEESSGGSGSPLGLSSGGSGS-SP34VH, SEQ ID NO 36	Yes	EC50 (HT29 cells; MMP9-digested): 0.011 nM; EC50 (HT29 cells; Non-digested): 0.096 nM; tumor cell killing efficacy (HT29 cells): higher efficacy in inducing tumor cell killing than their undigested counterparts; Digested vs. masked (HT29 cells): 9×
L7-G3A: M-TCE; QDANEESSGGSGSPLGLSSGGSGS-SP34VH, SEQ ID NO 42	Yes	–
L7-WT: M-TCE; QDGNEESSGGSGSPLGLSSGGSGS-SP34VH, SEQ ID NO 18	Yes	–
LC-L4-G2E: M-TCE, mask on VL; QEGNEEGSGSPLGLGSGS-SP34VL, SEQ ID NO 27	Yes	–
SP34-CEA (bispecific antibody) heavy: EVKLLESGGGLVQPKGSLKLSCAASGFTFNTYAMNWVRQAPGKGLEWVARIRSKYNNYATYYADSVKDRFTISRDDSQSILYLQMNNLKTEDTAMYYCVRHGNFGNSYVSWFAYWGQGTLVTVSS light: QAVVTQESALTTSPGETVTLTCRSSTGAVTTSNYANWVQEKPDHLFTGLIGGTNKRAPGVPARFSGSLIGDKAALTITGAQTEDEAIYFCALWYSNLWVFGGGTKVEIK EVQLVESGGGFVQAGESLTLSCTSSTLTFTPYRMAWYRQAPGKQRDLVADISSGDGRTTNYADFAKGRFTISRDNIKNTVFLRMTNLKPEDTAVYYCNTFVSFVGIARSWGQGTQVTVSSESKYGPPCPPCPAPEAAGGPSVFLFPPKPKDTLMISRTPEVTCVVVDVSQEDPEVQFNWYVDGVEVHNAKTKPREEQFNSTYRVVSVLTVLHQDWLNGKEYKCKVSNKGLPSSIEKTISKAKGQPREPQVCTLPPSQEEMTKNQVSLSCAVKGFYPSDIAVEWESNGQPENNYKTTPPVLDSDGSFFLVSRLTVDKSRWQEGNVFSCSVMHEALHNRFTQKSLSLSL	–	EC50 of M-TCE-induced killing of HT29 cells in the presence of human PBMC (CD3 on human PBMC): 0.001 nM
MMP9-digested L7-D2G (bispecific antibody, not shown: small tags and cut ends) heavy: EVKLLESGGGLVQPKGSLKLSCAASGFTFNTYAMNWVRQAPGKGLEWVARIRSKYNNYATYYADSVKDRFTISRDDSQSILYLQMNNLKTEDTAMYYCVRHGNFGNSYVSWFAYWGQGTLVTVSS light: QAVVTQESALTTSPGETVTLTCRSSTGAVTTSNYANWVQEKPDHLFTGLIGGTNKRAPGVPARFSGSLIGDKAALTITGAQTEDEAIYFCALWYSNLWVFGGGTKVEIK EVQLVESGGGFVQAGESLTLSCTSSTLTFTPYRMAWYRQAPGKQRDLVADISSGDGRTTNYADFAKGRFTISRDNIKNTVFLRMTNLKPEDTAVYYCNTFVSFVGIARSWGQGTQVTVSSESKYGPPCPPCPAPEAAGGPSVFLFPPKPKDTLMISRTPEVTCVVVDVSQEDPEVQFNWYVDGVEVHNAKTKPREEQFNSTYRVVSVLTVLHQDWLNGKEYKCKVSNKGLPSSIEKTISKAKGQPREPQVCTLPPSQEEMTKNQVSLSCAVKGFYPSDIAVEWESNGQPENNYKTTPPVLDSDGSFFLVSRLTVDKSRWQEGNVFSCSVMHEALHNRFTQKSLSLSL	–	EC50 of M-TCE-induced killing of HT29 cells in the presence of human PBMC (CD3 on human PBMC): 0.011 nM
MMP9-digested L6-D2E (bispecific antibody, not shown: small tags and cut ends) heavy: EVKLLESGGGLVQPKGSLKLSCAASGFTFNTYAMNWVRQAPGKGLEWVARIRSKYNNYATYYADSVKDRFTISRDDSQSILYLQMNNLKTEDTAMYYCVRHGNFGNSYVSWFAYWGQGTLVTVSS light: QAVVTQESALTTSPGETVTLTCRSSTGAVTTSNYANWVQEKPDHLFTGLIGGTNKRAPGVPARFSGSLIGDKAALTITGAQTEDEAIYFCALWYSNLWVFGGGTKVEIK EVQLVESGGGFVQAGESLTLSCTSSTLTFTPYRMAWYRQAPGKQRDLVADISSGDGRTTNYADFAKGRFTISRDNIKNTVFLRMTNLKPEDTAVYYCNTFVSFVGIARSWGQGTQVTVSSESKYGPPCPPCPAPEAAGGPSVFLFPPKPKDTLMISRTPEVTCVVVDVSQEDPEVQFNWYVDGVEVHNAKTKPREEQFNSTYRVVSVLTVLHQDWLNGKEYKCKVSNKGLPSSIEKTISKAKGQPREPQVCTLPPSQEEMTKNQVSLSCAVKGFYPSDIAVEWESNGQPENNYKTTPPVLDSDGSFFLVSRLTVDKSRWQEGNVFSCSVMHEALHNRFTQKSLSLSL	–	EC50 of M-TCE-induced killing of HT29 cells in the presence of human PBMC (CD3 on human PBMC): 0.01 nM
L4-D2E (bispecific antibody) heavy: QEGNEEGSGSPLGLGSGSEVKLLESGGGLVQPKGSLKLSCAASGFTFNTYAMNWVRQAPGKGLEWVARIRSKYNNYATYYADSVKDRFTISRDDSQSILYLQMNNLKTEDTAMYYCVRHGNFGNSYVSWFAYWGQGTLVTVSS light: QAVVTQESALTTSPGETVTLTCRSSTGAVTTSNYANWVQEKPDHLFTGLIGGTNKRAPGVPARFSGSLIGDKAALTITGAQTEDEAIYFCALWYSNLWVFGGGTKVEIK EVQLVESGGGFVQAGESLTLSCTSSTLTFTPYRMAWYRQAPGKQRDLVADISSGDGRTTNYADFAKGRFTISRDNIKNTVFLRMTNLKPEDTAVYYCNTFVSFVGIARSWGQGTQVTVSSESKYGPPCPPCPAPEAAGGPSVFLFPPKPKDTLMISRTPEVTCVVVDVSQEDPEVQFNWYVDGVEVHNAKTKPREEQFNSTYRVVSVLTVLHQDWLNGKEYKCKVSNKGLPSSIEKTISKAKGQPREPQVCTLPPSQEEMTKNQVSLSCAVKGFYPSDIAVEWESNGQPENNYKTTPPVLDSDGSFFLVSRLTVDKSRWQEGNVFSCSVMHEALHNRFTQKSLSLSL	–	Digested vs. masked (ratio of killing EC50) (CD3 on human PBMC): 59 fold; EC50 of M-TCE-induced killing of HT29 cells in the presence of human PBMC (CD3 on human PBMC): 0.65 nM
